Test results taken from EP1110454A2, “5-Carboxanilido-haloalkylthiazoles as antimicrobial and marine antifouling agents” (ROHM AND HAAS COMPANY, priority 1999, dated 2001).

Columns and labels:
Type in all cases: cell-based
Escherichia coli = assay: Minimum Inhibitory Concentration (MIC) test, two fold serial dilutions; set-up: unit not given here; details: Minimal Salts Media (M9G)
Protocol: (§1) The spectrum of antimicrobial activity of the antimicrobial agents useful in the present invention were determined in Minimum Inhibitory Concentration (MIC) tests. MICs were determined by two fold serial dilutions of a compound in Minimal Salts Media (M9G), Trypticase Soy Broth (TSB) or Tryticase Soy Broth and anionic surfactant (TSBA). The compounds were tested against Aspergillus niger, Rhodotorula rubra, Escherichia coli and Pseudomonas aeruginosa. Results of the MIC tests are shown below.

Rhodotorula rubra = assay: as above; set-up: R. Rubra M9G: unit not given here; details: for R. Rubra M9G: Minimal Salts Media (M9G)
Protocol: as §1

Aspergillus niger = assay: as above; details: Trypticase Soy Broth (TSB)
Protocol: as §1

[1] = tested on: Aspergillus niger, Rhodotorula rubra, Escherichia coli and Pseudomonas aeruginosa; assay: MIC tests, overall spectrum of antimicrobial activity; details: verbal summary of the MIC results of Table 1
Protocol: as §1

| Compound | E.Coli M9G (Escherichia coli) | R. Rubra M9G (Rhodotorula rubra) | A. niger TSB (Aspergillus niger) | R. Rubra TSB (Rhodotorula rubra; Trypticase Soy Broth (TSB)) | microbicidal activity [1] |
| --- | --- | --- | --- | --- | --- |
| Cc1nc(C(F)F)c(C(=O)Nc2c(Br)cc(OC(F)(F)F)cc2Br)s1 [Compound 35] | 300 | 300 | – | – | – |
| Cc1nc(C(F)F)c(C(=O)Nc2c(Br)cc(Br)cc2Br)s1 [Compound 34] | 300 | 300 | – | – | – |
| O=C(Nc1c(Br)cc(OC(F)(F)F)cc1Br)c1sc(C(F)(F)F)nc1C(F)(F)F [Compound 29] | >300 | 300 | – | – | – |
| Cc1nc(C(F)(F)F)c(C(=O)Nc2c(Cl)cc(OC(F)(F)F)cc2Cl)s1 [Compound 33] | 300 | 300 | – | – | – |
| O=C(Nc1c(Br)cc(Br)cc1Br)c1sc(C(F)(F)F)nc1C(F)(F)F [Compound 26] | >300 | 300 | – | – | – |
| O=C(Nc1ccc(F)c(F)c1)c1sc(C(Cl)(Cl)Cl)nc1C(F)(F)F [Compound 43] | >300 | 30 | >30 | 30 | surprisingly effective at controlling microorganisms |
